In ChEMBL document CHEMBL4507268 (2021):

Tests used:
Details in all cases: Compound concentration 1.0 uM
[1] = molecular target: T1, Serine/threonine-protein kinase TAO3 (Homo sapiens) (UniProt Q9H2K8)
T1 sequence (whole entry): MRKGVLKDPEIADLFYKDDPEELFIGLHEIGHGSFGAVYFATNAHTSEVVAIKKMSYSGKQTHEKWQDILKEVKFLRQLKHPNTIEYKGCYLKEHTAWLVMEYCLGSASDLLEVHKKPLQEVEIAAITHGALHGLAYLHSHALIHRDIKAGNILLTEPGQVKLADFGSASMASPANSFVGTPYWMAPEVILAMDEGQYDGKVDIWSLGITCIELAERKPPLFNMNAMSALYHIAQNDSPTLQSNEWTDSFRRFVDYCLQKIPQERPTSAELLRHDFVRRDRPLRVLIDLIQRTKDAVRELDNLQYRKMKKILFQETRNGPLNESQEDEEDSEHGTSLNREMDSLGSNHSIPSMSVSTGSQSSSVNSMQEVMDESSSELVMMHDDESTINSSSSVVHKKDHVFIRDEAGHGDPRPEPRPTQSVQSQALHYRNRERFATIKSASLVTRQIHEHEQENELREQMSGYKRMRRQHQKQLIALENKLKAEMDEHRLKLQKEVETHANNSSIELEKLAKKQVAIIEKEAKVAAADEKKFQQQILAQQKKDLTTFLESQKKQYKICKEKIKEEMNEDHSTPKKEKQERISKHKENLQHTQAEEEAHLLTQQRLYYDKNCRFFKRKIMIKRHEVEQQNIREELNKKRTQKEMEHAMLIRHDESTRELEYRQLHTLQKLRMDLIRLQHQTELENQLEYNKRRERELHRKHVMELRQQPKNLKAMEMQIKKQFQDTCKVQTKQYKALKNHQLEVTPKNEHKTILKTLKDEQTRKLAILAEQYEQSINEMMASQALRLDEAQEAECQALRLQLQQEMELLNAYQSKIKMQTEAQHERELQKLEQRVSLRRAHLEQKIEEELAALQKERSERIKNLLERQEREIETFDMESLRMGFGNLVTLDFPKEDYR

[2] = molecular target: T2, Dual specificity mitogen-activated protein kinase kinase 6 (Homo sapiens) (UniProt P52564)
T2 sequence (whole entry): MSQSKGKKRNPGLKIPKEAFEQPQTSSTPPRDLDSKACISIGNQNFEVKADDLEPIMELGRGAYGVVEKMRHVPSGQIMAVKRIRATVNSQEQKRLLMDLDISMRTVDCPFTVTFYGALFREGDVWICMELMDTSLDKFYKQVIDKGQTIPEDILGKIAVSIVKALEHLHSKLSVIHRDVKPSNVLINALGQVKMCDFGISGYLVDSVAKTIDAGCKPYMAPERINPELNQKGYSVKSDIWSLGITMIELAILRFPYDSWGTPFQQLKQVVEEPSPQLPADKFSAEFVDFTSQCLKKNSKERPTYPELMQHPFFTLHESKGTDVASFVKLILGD

[3] = molecular target: Serine/threonine-protein kinase 32C (Homo sapiens) (UniProt Q86UX6)
Serine/threonine-protein kinase 32C (Homo sapiens), sequence (Q86UX6 whole entry): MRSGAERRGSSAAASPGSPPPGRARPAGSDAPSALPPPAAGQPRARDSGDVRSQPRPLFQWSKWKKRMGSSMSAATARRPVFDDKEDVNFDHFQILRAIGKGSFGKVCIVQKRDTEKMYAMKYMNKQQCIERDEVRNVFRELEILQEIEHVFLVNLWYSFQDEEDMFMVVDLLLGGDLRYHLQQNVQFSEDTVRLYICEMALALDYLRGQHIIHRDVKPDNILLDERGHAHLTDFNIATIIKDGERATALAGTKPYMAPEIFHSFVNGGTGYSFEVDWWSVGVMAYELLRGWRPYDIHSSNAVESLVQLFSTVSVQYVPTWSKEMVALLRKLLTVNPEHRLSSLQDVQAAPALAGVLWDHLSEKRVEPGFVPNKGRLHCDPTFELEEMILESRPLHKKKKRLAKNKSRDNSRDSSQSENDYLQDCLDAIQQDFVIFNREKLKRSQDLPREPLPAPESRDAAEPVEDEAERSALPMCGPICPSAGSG

[4] = molecular target: T3, Mitogen-activated protein kinase kinase kinase kinase 3 (Homo sapiens) (UniProt Q8IVH8)
T3 sequence (whole entry): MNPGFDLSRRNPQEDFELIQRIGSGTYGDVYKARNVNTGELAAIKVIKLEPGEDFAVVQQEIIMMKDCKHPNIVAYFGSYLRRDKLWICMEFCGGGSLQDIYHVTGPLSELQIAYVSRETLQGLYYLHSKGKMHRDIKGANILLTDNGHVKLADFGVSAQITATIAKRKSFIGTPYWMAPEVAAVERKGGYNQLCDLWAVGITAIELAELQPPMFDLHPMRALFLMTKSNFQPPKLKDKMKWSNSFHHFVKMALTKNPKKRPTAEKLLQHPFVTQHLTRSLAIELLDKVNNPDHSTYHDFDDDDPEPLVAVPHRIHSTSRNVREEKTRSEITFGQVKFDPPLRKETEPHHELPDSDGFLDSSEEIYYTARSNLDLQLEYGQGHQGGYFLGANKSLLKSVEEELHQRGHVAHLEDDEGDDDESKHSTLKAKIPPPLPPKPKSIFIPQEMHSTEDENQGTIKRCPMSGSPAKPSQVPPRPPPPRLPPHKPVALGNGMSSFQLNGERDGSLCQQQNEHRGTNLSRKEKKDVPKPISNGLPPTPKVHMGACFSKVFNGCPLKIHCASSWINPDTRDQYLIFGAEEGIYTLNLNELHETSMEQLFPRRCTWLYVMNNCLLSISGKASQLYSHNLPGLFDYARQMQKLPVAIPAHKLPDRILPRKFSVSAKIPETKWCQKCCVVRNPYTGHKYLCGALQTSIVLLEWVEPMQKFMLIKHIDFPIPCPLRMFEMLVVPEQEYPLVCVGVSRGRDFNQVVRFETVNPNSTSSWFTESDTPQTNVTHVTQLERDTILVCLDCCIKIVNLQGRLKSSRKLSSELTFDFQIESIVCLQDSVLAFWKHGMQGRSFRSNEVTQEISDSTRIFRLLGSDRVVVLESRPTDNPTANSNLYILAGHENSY

[5] = molecular target: Tyrosine-protein kinase Lyn (Homo sapiens) (UniProt P07948)
Tyrosine-protein kinase Lyn (Homo sapiens), sequence (P07948 2-512 limits assumed): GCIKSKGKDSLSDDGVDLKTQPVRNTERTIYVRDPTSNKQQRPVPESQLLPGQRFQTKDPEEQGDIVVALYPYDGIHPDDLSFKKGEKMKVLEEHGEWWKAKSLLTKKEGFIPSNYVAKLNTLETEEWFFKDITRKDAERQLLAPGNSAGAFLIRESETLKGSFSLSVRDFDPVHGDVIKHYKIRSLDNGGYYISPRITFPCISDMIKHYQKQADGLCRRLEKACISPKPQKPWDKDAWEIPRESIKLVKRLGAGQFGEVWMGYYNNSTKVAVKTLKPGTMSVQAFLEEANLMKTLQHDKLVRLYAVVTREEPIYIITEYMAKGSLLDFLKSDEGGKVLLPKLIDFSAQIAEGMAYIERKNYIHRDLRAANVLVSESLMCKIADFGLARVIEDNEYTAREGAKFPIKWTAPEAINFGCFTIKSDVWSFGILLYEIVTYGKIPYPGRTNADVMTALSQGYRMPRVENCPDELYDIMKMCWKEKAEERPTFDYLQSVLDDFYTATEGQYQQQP

[6] = molecular target: Eukaryotic translation initiation factor 2-alpha kinase 1 (Homo sapiens) (UniProt Q9BQI3)
Eukaryotic translation initiation factor 2-alpha kinase 1 (Homo sapiens), sequence (Q9BQI3 whole entry): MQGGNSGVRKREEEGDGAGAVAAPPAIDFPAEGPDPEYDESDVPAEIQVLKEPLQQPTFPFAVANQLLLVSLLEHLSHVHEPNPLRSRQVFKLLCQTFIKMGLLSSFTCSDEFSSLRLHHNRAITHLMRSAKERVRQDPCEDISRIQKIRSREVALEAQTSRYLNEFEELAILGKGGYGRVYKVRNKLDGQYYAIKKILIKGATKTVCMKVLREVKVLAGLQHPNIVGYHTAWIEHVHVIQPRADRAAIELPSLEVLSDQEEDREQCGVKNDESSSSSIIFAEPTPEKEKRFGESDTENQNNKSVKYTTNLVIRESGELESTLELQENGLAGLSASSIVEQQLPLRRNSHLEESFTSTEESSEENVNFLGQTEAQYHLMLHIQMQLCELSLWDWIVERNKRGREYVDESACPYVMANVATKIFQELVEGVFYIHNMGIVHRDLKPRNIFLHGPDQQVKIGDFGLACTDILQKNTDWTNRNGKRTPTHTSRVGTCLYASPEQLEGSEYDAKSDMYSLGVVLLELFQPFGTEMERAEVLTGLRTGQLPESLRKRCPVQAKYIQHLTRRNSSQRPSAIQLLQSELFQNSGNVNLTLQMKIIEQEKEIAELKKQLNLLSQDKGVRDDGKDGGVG

[7] = molecular target: Platelet-derived growth factor receptor beta (Homo sapiens) (UniProt P09619)
Platelet-derived growth factor receptor beta (Homo sapiens), sequence (P09619 whole entry): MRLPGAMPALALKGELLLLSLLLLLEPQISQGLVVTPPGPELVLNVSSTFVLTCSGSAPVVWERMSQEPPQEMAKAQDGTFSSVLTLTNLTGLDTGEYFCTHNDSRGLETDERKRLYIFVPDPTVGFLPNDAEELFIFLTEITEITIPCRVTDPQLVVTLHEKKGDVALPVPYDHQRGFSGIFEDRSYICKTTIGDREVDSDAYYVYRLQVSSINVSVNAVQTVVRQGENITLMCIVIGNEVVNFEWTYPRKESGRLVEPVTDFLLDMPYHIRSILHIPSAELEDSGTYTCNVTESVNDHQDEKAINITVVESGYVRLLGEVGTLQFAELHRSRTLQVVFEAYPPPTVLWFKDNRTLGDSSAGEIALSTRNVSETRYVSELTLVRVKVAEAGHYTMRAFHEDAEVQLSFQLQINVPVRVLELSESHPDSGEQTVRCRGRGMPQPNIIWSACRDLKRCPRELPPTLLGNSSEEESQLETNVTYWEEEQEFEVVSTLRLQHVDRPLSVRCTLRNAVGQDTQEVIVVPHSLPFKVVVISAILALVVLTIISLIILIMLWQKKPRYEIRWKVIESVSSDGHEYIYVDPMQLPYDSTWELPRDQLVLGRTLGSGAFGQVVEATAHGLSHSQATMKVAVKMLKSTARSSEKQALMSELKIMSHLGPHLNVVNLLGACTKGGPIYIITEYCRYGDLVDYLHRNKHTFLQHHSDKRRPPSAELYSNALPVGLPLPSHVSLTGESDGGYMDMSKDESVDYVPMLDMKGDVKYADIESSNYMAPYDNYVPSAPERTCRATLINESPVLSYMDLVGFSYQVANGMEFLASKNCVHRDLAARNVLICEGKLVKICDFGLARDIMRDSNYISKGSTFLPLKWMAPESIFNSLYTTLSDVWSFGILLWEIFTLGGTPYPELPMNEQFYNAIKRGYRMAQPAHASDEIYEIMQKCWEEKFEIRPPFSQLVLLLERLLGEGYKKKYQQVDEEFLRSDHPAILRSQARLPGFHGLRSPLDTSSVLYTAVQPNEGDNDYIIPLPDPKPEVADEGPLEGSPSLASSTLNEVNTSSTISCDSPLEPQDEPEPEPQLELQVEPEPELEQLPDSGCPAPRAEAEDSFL

[8] = molecular target: Serine/threonine-protein kinase N2 (Homo sapiens) (UniProt Q16513)
Serine/threonine-protein kinase N2 (Homo sapiens), sequence (Q16513 whole entry, looked up): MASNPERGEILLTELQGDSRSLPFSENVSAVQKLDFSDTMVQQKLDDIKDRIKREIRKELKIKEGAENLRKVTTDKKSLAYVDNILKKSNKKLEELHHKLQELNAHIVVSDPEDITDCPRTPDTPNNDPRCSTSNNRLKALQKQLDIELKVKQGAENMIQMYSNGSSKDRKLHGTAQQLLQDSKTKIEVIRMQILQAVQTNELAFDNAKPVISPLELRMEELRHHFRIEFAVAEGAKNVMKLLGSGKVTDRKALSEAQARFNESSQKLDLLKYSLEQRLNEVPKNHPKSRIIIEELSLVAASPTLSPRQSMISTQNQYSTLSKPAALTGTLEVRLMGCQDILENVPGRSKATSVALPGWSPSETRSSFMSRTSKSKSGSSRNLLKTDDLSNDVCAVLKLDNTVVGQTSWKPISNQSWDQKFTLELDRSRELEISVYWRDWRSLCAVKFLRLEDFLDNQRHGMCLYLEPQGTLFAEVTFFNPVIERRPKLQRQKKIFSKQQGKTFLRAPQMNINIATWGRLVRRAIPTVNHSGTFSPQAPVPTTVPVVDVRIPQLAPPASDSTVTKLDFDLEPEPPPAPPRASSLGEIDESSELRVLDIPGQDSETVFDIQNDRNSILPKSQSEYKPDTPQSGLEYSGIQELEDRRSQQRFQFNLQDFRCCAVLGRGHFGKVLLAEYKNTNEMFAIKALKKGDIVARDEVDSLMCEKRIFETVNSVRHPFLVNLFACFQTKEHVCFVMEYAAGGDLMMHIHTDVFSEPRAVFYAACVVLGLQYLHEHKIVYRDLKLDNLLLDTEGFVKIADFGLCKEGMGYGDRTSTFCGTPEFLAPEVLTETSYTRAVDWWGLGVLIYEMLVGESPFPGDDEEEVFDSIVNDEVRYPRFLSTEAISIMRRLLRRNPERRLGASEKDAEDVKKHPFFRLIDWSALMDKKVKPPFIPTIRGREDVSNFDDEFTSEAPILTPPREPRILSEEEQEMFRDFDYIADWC

[9] = molecular target: Serine/threonine-protein kinase 33 (Homo sapiens) (UniProt Q9BYT3)
Serine/threonine-protein kinase 33 (Homo sapiens), sequence (Q9BYT3 whole entry, looked up): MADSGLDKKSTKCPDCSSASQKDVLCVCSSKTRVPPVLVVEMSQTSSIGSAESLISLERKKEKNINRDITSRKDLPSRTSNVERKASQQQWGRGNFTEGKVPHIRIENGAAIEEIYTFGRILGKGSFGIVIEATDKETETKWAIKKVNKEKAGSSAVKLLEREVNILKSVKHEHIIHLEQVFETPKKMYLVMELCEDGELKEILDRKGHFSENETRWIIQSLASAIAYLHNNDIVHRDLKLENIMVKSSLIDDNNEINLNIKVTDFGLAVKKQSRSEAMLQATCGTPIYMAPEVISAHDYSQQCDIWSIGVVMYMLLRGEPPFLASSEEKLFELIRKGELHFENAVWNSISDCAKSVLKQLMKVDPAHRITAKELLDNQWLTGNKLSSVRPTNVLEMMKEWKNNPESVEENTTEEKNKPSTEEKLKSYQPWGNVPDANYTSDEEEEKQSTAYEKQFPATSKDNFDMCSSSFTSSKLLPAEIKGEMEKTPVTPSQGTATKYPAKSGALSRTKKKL

[10] = molecular target: Mitogen-activated protein kinase 10 (Homo sapiens) (UniProt P53779)
Mitogen-activated protein kinase 10 (Homo sapiens), sequence (P53779 whole entry): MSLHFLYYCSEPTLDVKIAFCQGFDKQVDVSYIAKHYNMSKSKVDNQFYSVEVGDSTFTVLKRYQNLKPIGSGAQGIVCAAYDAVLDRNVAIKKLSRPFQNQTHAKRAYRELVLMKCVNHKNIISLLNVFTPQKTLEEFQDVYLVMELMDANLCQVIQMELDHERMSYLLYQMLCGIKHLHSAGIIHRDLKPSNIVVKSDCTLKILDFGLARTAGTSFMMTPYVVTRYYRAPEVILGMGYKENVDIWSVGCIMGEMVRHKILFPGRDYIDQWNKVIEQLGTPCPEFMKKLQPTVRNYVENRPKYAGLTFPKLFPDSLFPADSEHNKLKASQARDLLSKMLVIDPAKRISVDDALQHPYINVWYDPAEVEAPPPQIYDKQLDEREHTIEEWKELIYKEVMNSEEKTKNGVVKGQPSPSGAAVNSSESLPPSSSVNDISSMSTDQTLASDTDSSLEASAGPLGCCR

[11] = molecular target: Tyrosine-protein kinase JAK2 (Homo sapiens) (UniProt O60674)

Measured: % residual kinase activity

CN1CCN(c2cnc3c(C4CCN(C(=O)c5ccc(OC(F)(F)F)cc5N)CC4)ncnc3c2)CC1 [BAY-885]
inactive: [1] 110% | [2] 99% | [3] 103% | [4] 102% | [5] 100% | [6] 104% | [7] 107% | [8] 104% | [9] 103% | [10] 111% | [11] 100%
